Measurements: publication PMC10765413, “Correlating Conformational Equilibria with Catalysis in the Electron Bifurcating EtfABCX of Thermotoga maritima” (Biochemistry, 2023)
Read-outs that look alike come from different tables or passages of the source. Each block holds one compound with its values, some of them ahead of it.

Legend:
EtfABCX [1] = target: T1, EtfABCX (Thermotoga maritima, UniProt Q9X1L6+Q9X1L7+Q9X1L8); experiment: FAD released by […] SDS and quantified by absorbance; format: binding; conditions: co-purified; BF-FAD in EtfA, ET-FAD in EtfB, QR-FAD in EtfC
T1 construct: gene TM_1530; operon in pET-21a(+), N-terminal 9xHis tag, E. coli BL21(DE3) deltaiscR, anaerobic purification; superdimer (ABCX)2, 257 kDa, three FAD per supermonomer; with Ferredoxin-like protein FixX (EtfX; two [4Fe-4S] clusters)

EtfAB [2] = target: T2, EtfAB (Thermotoga maritima, UniProt Q9X1L6+Q9X1L7); experiment: FAD released by […] SDS and quantified by absorbance; format: binding; conditions: co-purified; BF-FAD site in EtfA and ET-FAD site in EtfB
T2 construct: gene TM_1530; recombinant EtfAB heterodimer from E. coli BL21(DE3) deltaiscR, 9xHis tag, 69 kDa expected, two FAD per heterodimer, purified anaerobically

EtfAB [3] = target: T2, EtfAB; experiment: anaerobic SEC-SAXS with in-line UV-visible spectroscopy (flavin reduction, compaction); format: binding; conditions: 20 mM Tris-HCl pH 8.0, 200 mM NaCl, room temperature
EtfABCX [4] = target: T1, EtfABCX; experiment: anaerobic SEC-MALS-SAXS with in-line UV-visible spectroscopy; format: binding; conditions: NAD+ in running buffer, 20 mM Tris-HCl pH 8.0, 200 mM NaCl, 0.01% DDM
[5] = target: Thermotoga maritima Fix/EtfABCX supermonomer (ABCX heterotetramer protomer) (Thermotoga maritima); experiment: SEC-MALS + other: SEC-SAXS; anaerobic SEC-MALS-SAXS of purified EtfABCX; KW-803 column, room temperature, 0.65 mL/min; 20 mM Tris-HCl pH 8.0, 200 mM NaCl with 0.01% DDM (also buffer only); no additive, NADH, NAD+ or DT in the running buffer
[6] = target: Thermotoga maritima Fix/EtfABCX supermonomer (ABCX heterotetramer protomer) (Thermotoga maritima); experiment: as above; remark: listed apart in the source

T2 sequence (Q9X1L6 entry or part of it): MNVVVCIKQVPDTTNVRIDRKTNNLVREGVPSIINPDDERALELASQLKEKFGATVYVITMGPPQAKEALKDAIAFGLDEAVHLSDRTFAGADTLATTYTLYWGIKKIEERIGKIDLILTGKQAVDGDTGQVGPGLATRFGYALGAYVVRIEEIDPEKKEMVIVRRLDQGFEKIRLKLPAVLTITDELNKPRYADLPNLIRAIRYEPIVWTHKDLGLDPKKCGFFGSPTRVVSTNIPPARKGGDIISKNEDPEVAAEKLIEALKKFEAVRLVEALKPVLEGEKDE
T2 sequence (Q9X1L7 entry or part of it): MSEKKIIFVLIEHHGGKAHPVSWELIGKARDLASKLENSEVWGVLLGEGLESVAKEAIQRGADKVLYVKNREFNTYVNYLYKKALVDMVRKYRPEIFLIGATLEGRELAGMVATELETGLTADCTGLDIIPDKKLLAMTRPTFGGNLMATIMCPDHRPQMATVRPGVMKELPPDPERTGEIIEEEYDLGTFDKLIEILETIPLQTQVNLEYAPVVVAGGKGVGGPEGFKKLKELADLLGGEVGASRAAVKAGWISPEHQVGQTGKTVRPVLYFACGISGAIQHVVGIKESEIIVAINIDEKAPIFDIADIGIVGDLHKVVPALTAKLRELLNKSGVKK
T1 sequence (Q9X1L6 2-285): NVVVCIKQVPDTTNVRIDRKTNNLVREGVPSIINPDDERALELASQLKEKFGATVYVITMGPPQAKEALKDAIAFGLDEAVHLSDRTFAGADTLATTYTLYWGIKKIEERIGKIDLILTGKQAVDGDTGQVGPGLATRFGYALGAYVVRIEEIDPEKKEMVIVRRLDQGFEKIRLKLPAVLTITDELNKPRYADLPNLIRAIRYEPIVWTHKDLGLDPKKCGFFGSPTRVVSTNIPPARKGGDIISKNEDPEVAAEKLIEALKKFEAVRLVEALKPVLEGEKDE
T1 sequence (Q9X1L7 1-338): as the sequence (Q9X1L7 entry or part of it) above
T1 sequence (Q9X1L8 1-438): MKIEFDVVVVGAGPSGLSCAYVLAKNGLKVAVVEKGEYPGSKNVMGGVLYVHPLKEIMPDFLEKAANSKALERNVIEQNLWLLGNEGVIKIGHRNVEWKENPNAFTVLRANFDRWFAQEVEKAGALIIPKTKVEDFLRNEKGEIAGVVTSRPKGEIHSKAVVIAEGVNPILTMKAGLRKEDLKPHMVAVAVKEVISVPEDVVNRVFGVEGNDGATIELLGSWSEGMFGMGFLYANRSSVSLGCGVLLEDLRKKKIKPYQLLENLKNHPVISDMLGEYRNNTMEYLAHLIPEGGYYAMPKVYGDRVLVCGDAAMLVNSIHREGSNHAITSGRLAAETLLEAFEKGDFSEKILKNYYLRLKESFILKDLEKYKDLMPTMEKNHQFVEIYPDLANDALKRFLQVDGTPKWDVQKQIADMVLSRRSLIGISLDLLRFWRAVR
T1 sequence (Q9X1L9 1-92 partner): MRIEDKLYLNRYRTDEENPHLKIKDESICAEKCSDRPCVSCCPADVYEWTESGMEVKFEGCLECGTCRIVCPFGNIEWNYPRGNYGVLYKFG

Compound: Cc1cc2nc3c(=O)[nH]c(=O)nc-3n(C[C@H](O)[C@H](O)[C@H](O)COP(=O)(O)OP(=O)(O)OC[C@H]3O[C@@H](n4cnc5c(N)ncnc54)[C@H](O)[C@@H]3O)c2cc1C [FAD]
FAD released by 1% SDS and quantified by absorbance (EtfABCX [1]): approximately three and two molecules of FAD per EtfABCX supermonomer and EtfAB heterodimer, respectively
FAD released by 1% SDS and quantified by absorbance (EtfAB [2]): approximately three and two molecules of FAD per EtfABCX supermonomer and EtfAB heterodimer, respectively

Compound: NC(=O)C1=CN([C@@H]2O[C@H](COP(=O)(O)OP(=O)(O)OC[C@H]3O[C@@H](n4cnc5c(N)ncnc54)[C@H](O)[C@@H]3O)[C@@H](O)[C@H]2O)C=CC1 [NADH]
anaerobic SEC-SAXS with in-line UV-visible spectroscopy (flavin reduction, compa) (EtfAB [3]; excess NADH in running buffer): EtfAB in the presence of excess NADH indicated that its FAD cofactors were fully reduced

Compound: NC(=O)c1ccc[n+]([C@@H]2O[C@H](COP(=O)(O)OP(=O)(O)OC[C@H]3O[C@@H](n4cnc5c(N)ncnc54)[C@H](O)[C@@H]3O)[C@@H](O)[C@H]2O)c1 [NAD^+]
anaerobic SEC-MALS-SAXS with in-line UV-visible spectroscopy (EtfABCX [4]): likely due to the formation of an EtfABCX-NAD^+ complex
anaerobic SEC-SAXS with in-line UV-visible spectroscopy (flavin reduction, compa) (EtfAB [3]; excess NAD+ in running buffer, as-purified enzyme): EtfAB in the presence of NAD^+ led the enzyme into a more extended state

stoichiometry N [5]: 2
stoichiometry N [6]: 4
Compound: Thermotoga maritima Fix/EtfABCX supermonomer (ABCX heterotetramer protomer) (complex)
